In brackets after ≈: the same amount, converted by molar mass. Read-outs that look alike come from different tables or passages of the source. Residues, ends and D or L forms follow the SMILES beside them.
Tests used:
[1] = system: S. aureus USA300; type: cell-based, Staphylococcus aureus; settings: USA300
Method: The minimal bactericidal concentration (MBC) was determined by plating 50 μl of the content in the clear wells of the above MIC assays. MBC was determined on the petri dishes without bacterial colony formation after overnight growth (Wang et al. (2012) Biochemistry 51:653-664).

[2] = system: B. subtilis 168; type: cell-based, Bacillus subtilis
In short: (§1)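 Broth microdilution: exponential-phase bacteria at 10^6 CFU incubated with serially diluted peptides ~20 hours at 37° C, read at 630 nm to give MICs. For S. aureus USA300, effects of up to 10% human serum, pH 6.8/7.4/8.0 and 150 mM NaCl also tested.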

[3] = Hemolytic assay; type: cell-based; settings: red blood cells, hemolysis
Method: Hemolytic analysis of selected peptides was performed using an established protocol (Mishra et al. (2015) RSC Advances 5:59758-59769). Briefly, human blood cells (UNMC Blood Bank) were washed three times with phosphate buffer saline (PBS) and diluted to a 2% solution. After peptide treatment, incubation at 37° C. for one hour, and centrifugation at 13,000 rpm, aliquots of the supernatant were transferred to a fresh 96-well microplate. To assess peptide cytotoxicity, the amount of hemoglobin released was measured at 545 nm. The percent lysis was calculated by assuming 100% release when human blood cells were treated with 1% TRITON™ X-100, and 0% release when incubated with PBS buffer. The hemolytic assays using chicken, bovine, and porcine blood cells (Lampire Biological Laboratories, Inc.) were performed in the same manner.

[4] = MTS cytotoxicity assay; type: cell-based; settings: human, HeLa CCL-2 cells
Method: (§2) HeLa CCL-2 epithelial adenocarcinoma cells from American Type Culture Collection (ATCC) were maintained in DMEM high glucose media with 4 mM L-glutamine (NyClone) and 100 U/mL penicillin, 100 μg/mL streptomycin (pen/strep) (Life Technologies), and 10% (v/v) inactivated fetal bovine serum (FBS) (NyClone). Cells were grown in 5% CO2 at 37° C. and were detached from the culturing dish at 80% confluency using 0.025% trypsin-EDTA (NyClone) treatment. Peptide influence on the cell viability was estimated by using the MTS assay according to the manufacturer's protocol (MTS, CellTiter96® AQ One Solution Cell Proliferation Assay, Promega) with minor modifications and as described elsewhere (Mishra et al. (2015) RSC Advances 5:59758-59769). In short, cells were cultured in flat bottomed 96 well microtiter plates (Corning Life Science) at a seeding density of 20,000 cells/well. At confluence ˜100% achieved after 20-24 hours of cultivation, the cells were washed twice with 100 μL Dulbecco's Phosphate Buffered Saline (Life Technologies). Further, 90 μL of DMEM media with 10% FBS, pen/step was added before exposure to 10 μL of the peptide solution in the concentration range 12.5-100 μM. Plates were incubated at 37° C. After 1 hour, 10 μL MTS, CellTiter96® was added. Plates were further incubated for another 2 hours at 37° C. and finally, the absorbance was measured on ChroMate® reader (Awareness Technology) at 492 nm. Culture medium and 0.2% SDS were used as negative and positive controls, respectively.

[5] = system: C. glabrata ATCC 2001; type: cell-based, Candida glabrata; settings: ATCC 2001, 48 h
Method: (§3) Fungal strains used in this study include Candida albicans ATCC 10231, C. glabrata ATCC 2001 and C. tropicalis ATCC 13803. The fungi were grown in Remel Dex broth (Thermo Fisher Scientific, KS). Antifungal assays were conducted essentially as described for antibacterial assays above, except for a higher starting density at an OD600 0.02 and a longer incubation time of ˜48 hours prior to microplate reading (Mishra et al. (2015) RSC Advances 5:59758-59769).

[6] = system: S. epidermidis 1457; type: cell-based, Staphylococcus epidermidis
In short: as §1

[7] = system: Candida albicans ATCC 10231; type: cell-based; settings: ATCC 10231, 48 h
Method: as §3

[8] = system: S. aureus USA300; type: cell-based, Staphylococcus aureus; settings: for Antimicrobial activity (MIC) 150 mM NaCl / Antimicrobial activity (MIC) USA300 / MIC S. aureus USA300: USA300; for Antimicrobial activity (MIC) pH 6.8: USA300, pH 6.8; for Antimicrobial activity (MIC) Normal medium (pH 7.4): USA300, pH 7.4; for Antimicrobial activity (MIC) pH 8: USA300, pH 8
In short: as §1

[9] = system: S. aureus Newman; type: cell-based, Staphylococcus aureus
In short: as §1

[10] = system: S. aureus Mu50; type: cell-based, Staphylococcus aureus
In short: as §1

[11] = system: S. aureus UAMS-1; type: cell-based, Staphylococcus aureus
In short: as §1

[12] = system: E. coli K12; type: cell-based, Escherichia coli; settings: K12
In short: as §1

[13] = system: C. tropicalis ATCC 13803; type: cell-based, Candida tropicalis; settings: ATCC 13803, 48 h
Method: as §3

[14] = MTS cytotoxicity assay; type: cell-based; settings: human
Method: as §2
Human skin HaCaT (immortalized keratinocyte from AddexBio, T0020001) and kidney HEK293 cells were also cultivated for cytotoxicity evaluation of the peptides in a similar manner.

[15] = chicken, read-out: LC50 Chicken RBCs
[16] = human, read-out: LC50 Human RBCs
[17] = pig, read-out: LC50 Porcine RBCs

SMILES | MBC S. aureus USA300 [1] [µM] | MIC B. subtilis 168 [2] [µM] | HC50 at 1 hour [3, 15] [µM] | HC50 at 1 hour [3, 16] [µM] | HC50 at 1 hour [3, 17] [µM] | CC50 at 1 hour [4] [µM] | MIC Candida glabrata [5] [µM] | MIC S. epidermidis 1457 [6] [µM] | MIC Candida albicans [7] [µM] | change in MIC on drop of pH from 8 to 6.8 ([8]; S. aureus USA300) | Antimicrobial activity (MIC) 150 mM NaCl [8] [µM] | Antimicrobial activity (MIC) USA300 [8] [µM] | MIC S. aureus USA300 [8] [µM] | Antimicrobial activity (MIC) pH 6.8 [8] [μM] | Antimicrobial activity (MIC) Normal medium (pH 7.4) [8] | Antimicrobial activity (MIC) pH 8 [8] [μM] | Antimicrobial activity (MIC) Newman [9] [µM] | Antimicrobial activity (MIC) Mu50 [10] [µM] | Antimicrobial activity (MIC) UAMS-1 [11] [µM] | MIC E. coli K12 [12] [µM] | also measured
CC[C@H](C)[C@H](NC(=O)[C@H](CCCNC(=N)N)NC(=O)[C@H](CCCNC(=N)N)NC(=O)[C@H](CC(C)C)NC(=O)[C@H](Cc1c[nH]c2ccccc12)NC(=O)[C@H](Cc1c[nH]c2ccccc12)NC(=O)[C@@H](N)Cc1c[nH]c2ccccc12)C(=O)N[C@@H](Cc1c[nH]c2ccccc12)C(N)=O [TetraF2W-RR, WWWLRRIW] (H-WWWLRRIW-NH2; N-terminus assumed) | 3.1 (≈ 4.03 µg/mL) | 3.1 to 6.2 | 55 | 20 | 40 | 60 | >25 | 6.2 to 12.5 | 25 (≈ 32.5 µg/mL) | two-fold | 3.1 | 1.56 to 3.1 | 1.6 to 3.1 | 6.2 | 1.56-3.1 μM | 3.1 | 3.1 | 3.1 | 6.2 | 25 (≈ 32.5 µg/mL) | fold more potent than temporin-SHf (anti-MRSA) ([8]; S. aureus USA300): 8 fold; MIC Candida tropicalis [13]: 3.1 µM (≈ 4.03 µg/mL); CC50 at 1 hour ([14]; HEK293 cells): 70 µM; CC50 at 1 hour ([14]; HaCaT cells): 70 µM
CC[C@H](C)[C@H](NC(=O)[C@H](CCCCN)NC(=O)[C@H](CCCNC(=N)N)NC(=O)[C@H](CC(C)C)NC(=O)[C@H](Cc1c[nH]c2ccccc12)NC(=O)[C@H](Cc1c[nH]c2ccccc12)NC(=O)[C@@H](N)Cc1c[nH]c2ccccc12)C(=O)N[C@@H](Cc1c[nH]c2ccccc12)C(N)=O [TetraF2W-RK, WWWLRKIW] (H-WWWLRKIW-NH2; N-terminus assumed) | 12.5 (≈ 15.9 µg/mL) | 6.2 (≈ 7.89 µg/mL) | 35 | 30 | 40 | > 100 | 12.5 (≈ 15.9 µg/mL) | 6.2 (≈ 7.89 µg/mL) | 12.5 (≈ 15.9 µg/mL) | two-fold | 3.1 | 3.1 | 3.1 (≈ 3.94 µg/mL) | 6.2 | 3.1 μM | 3.1 | 3.1 | 3.1 | 6.2 | 25 (≈ 31.8 µg/mL) | MIC Candida tropicalis [13]: 3.1 to 6.2 µM; CC50 at 1 hour ([14]; HEK293 cells): 60 µM; CC50 at 1 hour ([14]; HaCaT cells): 60 µM

— patent US20190048052A1, “ANTI-MICROBIAL PEPTIDES AND COATINGS” (Board of Regents of the University of Nebraska, priority 2016, published 2019)
